Source: the NIST ThermoML archive (doi:10.1021/acs.jced.6b00120)
± gives the expanded uncertainty stated by the source.

Test: xn = mol fraction of the nth substance listed
Conditions: Gas, Buoyancy - hydrostatic balance with magnetic suspension - two sinkers, x1 = 0.05049

With [Ar] [argon] + O=C=O the mass density (273.15 K, 526.54 kPa) was 10.5097 ± 0.0037 kg/m3, the mass density (273.15 K, 1045.7 kPa) was 21.6518 ± 0.0059 kg/m3 and the mass density (273.15 K, 2054.6 kPa) was 46.254 ± 0.011 kg/m3. The mass density (273.15 K, 2521.6 kPa) was 59.4639 ± 0.014 kg/m3, the mass density (273.15 K, 2948.2 kPa) was 72.995 ± 0.017 kg/m3 and the mass density (283.15 K, 487.17 kPa) was 9.32016 ± 0.0035 kg/m3. It also gave a mass density (283.15 K, 1034 kPa) of 20.4562 ± 0.0056 kg/m3, a mass density (283.15 K, 2045.6 kPa) of 43.428 ± 0.01 kg/m3 and a mass density (283.15 K, 3054.1 kPa) of 70.7119 ± 0.016 kg/m3. For the same molecule, the mass density (283.15 K, 4058.4 kPa) was 105.393 ± 0.024 kg/m3, the mass density (293.15 K, 501.22 kPa) was 9.23865 ± 0.0035 kg/m3 and the mass density (293.15 K, 1009.9 kPa) was 19.1313 ± 0.0053 kg/m3. The mass density (293.15 K, 2033.5 kPa) was 40.9568 ± 0.0097 kg/m3, the mass density (293.15 K, 3031.1 kPa) was 65.5032 ± 0.015 kg/m3 and the mass density (293.15 K, 4032.7 kPa) was 95.0463 ± 0.022 kg/m3. The mass density (293.15 K, 5045.2 kPa) was 133.561 ± 0.031 kg/m3, the mass density (293.15 K, 5530.5 kPa) was 157.768 ± 0.038 kg/m3 and the mass density (308.15 K, 493.91 kPa) was 8.62503 ± 0.0034 kg/m3. The mass density (308.15 K, 996.02 kPa) was 17.7876 ± 0.0051 kg/m3, the mass density (308.15 K, 2002.5 kPa) was 37.5504 ± 0.009 kg/m3 and the mass density (308.15 K, 3004.5 kPa) was 59.5083 ± 0.013 kg/m3. For the same molecule, the mass density (308.15 K, 4005.8 kPa) was 84.4871 ± 0.019 kg/m3, the mass density (308.15 K, 5012.9 kPa) was 113.924 ± 0.026 kg/m3 and the mass density (308.15 K, 6005.3 kPa) was 149.364 ± 0.035 kg/m3. For the same molecule, the mass density (308.15 K, 6991.8 kPa) was 195.441 ± 0.047 kg/m3, the mass density (308.15 K, 7418.4 kPa) was 221.117 ± 0.056 kg/m3 and the mass density (308.15 K, 7793.4 kPa) was 248.529 ± 0.066 kg/m3. The mass density (323.15 K, 521.21 kPa) was 8.65936 ± 0.0034 kg/m3, the mass density (323.15 K, 1030.2 kPa) was 17.4463 ± 0.005 kg/m3 and the mass density (323.15 K, 2009.8 kPa) was 35.3997 ± 0.0085 kg/m3. It also gave a mass density (323.15 K, 3012.4 kPa) of 55.4385 ± 0.013 kg/m3, a mass density (323.15 K, 4030.3 kPa) of 77.9178 ± 0.017 kg/m3 and a mass density (323.15 K, 5045.6 kPa) of 103.062 ± 0.023 kg/m3. The mass density (323.15 K, 6032.4 kPa) was 130.908 ± 0.03 kg/m3, the mass density (323.15 K, 7032.7 kPa) was 163.762 ± 0.038 kg/m3 and the mass density (323.15 K, 8023.8 kPa) was 202.754 ± 0.049 kg/m3. It also gave a mass density (323.15 K, 8533.5 kPa) of 226.233 ± 0.056 kg/m3 and a mass density (323.15 K, 8988 kPa) of 249.635 ± 0.061 kg/m3.
